What all share (assay type): biochemical
The target of experiment [1] is T1, JAK2 (Homo sapiens, UniProt O60674).
T1 construct: All enzymes only contain the catalytic domain; His (N); purchased Carna Bioscience, Inc; host or cells: baculovirus expression system
Put plainly: In vitro enzyme assay (cell-free HTRF kinase assay), JAK2. The conditions noted are these: catalytic domain, His-tag; ATP 10 μM, SRCtide 25 nM, reaction 30 min. The protocol:
(§1) Kinase buffer [50 mM HEPES (pH 7.5), 1 mM EGTA, 10 mM MgCl2, 2 mM DTT and 0.01% Tween-20) was prepared and dilutions of a compound of formula (I) and other reagents were subsequently made in it. Two times concentrated compound of formula (I) solution: A compound of formula (I) was diluted to 100-fold final concentration in DMSO, followed by 50-fold dilution with Kinase buffer (1% DMSO final concentration). Four times concentrated Substrate/ATP mix solution: Biotin-SRCtide and ATP were diluted to 4-fold final concentration in Kinase buffer. Biotin-SRCtide solution (purchased from Anaspec) was mixed with ATP solution (1:1). Four times concentrated Enzyme solution: JAK1 or JAK2 or JAK3 or TYK2 enzyme [Human baculo virus expressed JAK1, JAK2, JAK3 and TYK2 were purchased from Carna Bioscience, Inc. All enzymes only contain the catalytic domain. JAK1 (aa 850-1154) and TYK2 (aa 871-1187) are expressed with an N-terminally fused GST-tag, and JAK2 and JAK3 with an N-terminally fused His-tag] was diluted to 4-fold final concentration in Kinase buffer and always kept on ice. Detection buffer: LANCE detection buffer (10 times concentrated) was diluted 10-fold in H2O. Four times concentrated stop solution: EDTA was diluted to a concentration of 40 mM in detection buffer. Four times concentrated ULight/Eu-antibody (from Perkin Elmer) mix solution: ULight-Streptavidin was diluted to a concentration of 100 nM (25 ng/mL final concentrations) and Eu-anti-phospho-Tyrosine (PT66) (from Perkin Elmer) was diluted to a concentration of 8 nM (2 ng/mL final concentration) in detection buffer.
(§2) Cell-free in vitro kinase assay was performed in 384 well plates. Two times concentrated compound solution (5 μL) was pipetted into a HTS 384SV Small Volume Plate. Four times concentrated Substrate/ATP mix (2.5 μL) solution was added along with 4 times concentrated Enzyme solution (2.5 μL). Plate was covered with TopSeal-A and incubated at room temperature for indicated time (Table 3). Four times concentrated Stop solution (5 μL, 10 mM final concentration) was added and incubated for 5 minutes at room temperature. Four times concentrated ULight/Eu-antibody mix solution (5 μL) was added and again plate was covered with TopSeal and incubated overnight at 4° C. TopSeal was removed and HTRF signal was measured at 615 nm and […] (excitation at 320 or 340 nm) on Tecan M1000 Multi mode plate reader. Ratio (665 nm/615 nm)×10^4 was calculated and IC50 values were deduced from Graph-pad prism 4.2.
In general terms: In TR-FRET formats the signal depends on donor and acceptor labels being close together.

The target in experiment [2] is T2, JAK3 (Homo sapiens, UniProt P52333).
T2 construct: All enzymes only contain the catalytic domain; His (N); purchased Carna Bioscience, Inc; host or cells: baculovirus expression system
T2 sequence (P52333 822-1111 limits assumed): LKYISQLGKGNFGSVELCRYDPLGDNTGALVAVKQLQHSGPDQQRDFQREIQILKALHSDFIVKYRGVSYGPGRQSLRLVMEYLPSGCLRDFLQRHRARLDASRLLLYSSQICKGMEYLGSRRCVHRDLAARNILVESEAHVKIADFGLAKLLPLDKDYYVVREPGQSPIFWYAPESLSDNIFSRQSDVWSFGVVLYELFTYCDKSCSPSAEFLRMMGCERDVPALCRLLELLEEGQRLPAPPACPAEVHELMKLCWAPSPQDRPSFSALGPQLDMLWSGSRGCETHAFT
The experiment in a line: In vitro enzyme assay (cell-free HTRF kinase assay), JAK3. The conditions noted are these: catalytic domain, His-tag; ATP 3 μM, SRCtide 100 nM, reaction 30 min. Here is the method: as §1, §2

In experiment [3] the target is T3, JAK1 (Homo sapiens, UniProt P23458).
T3 construct: JAK1 (aa 850-1154) and TYK2 (aa 871-1187) are expressed with an N-terminally fused GST-tag; GST (N); purchased Carna Bioscience, Inc; host or cells: baculovirus expression system
T3 sequence (P23458 850-1154): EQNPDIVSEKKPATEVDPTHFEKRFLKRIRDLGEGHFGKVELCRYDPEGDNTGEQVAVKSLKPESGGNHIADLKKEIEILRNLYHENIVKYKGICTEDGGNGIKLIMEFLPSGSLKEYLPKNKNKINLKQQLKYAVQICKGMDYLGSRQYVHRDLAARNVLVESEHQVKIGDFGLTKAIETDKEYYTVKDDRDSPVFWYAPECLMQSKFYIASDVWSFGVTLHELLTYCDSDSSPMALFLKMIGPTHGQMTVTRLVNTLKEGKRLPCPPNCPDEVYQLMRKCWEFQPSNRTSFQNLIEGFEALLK
The experiment in a line: In vitro enzyme assay (cell-free HTRF kinase assay), JAK1. To be noted: catalytic domain aa 850-1154, GST-tag; ATP 60 μM, SRCtide 400 nM, reaction 120 min. The protocol:
as §1, §2

As a reminder, the IC50 is the point on the concentration scale where inhibition reaches its midpoint. Read a low IC50 as inhibition by little substance.

T1 sequence (O60674 849-1124 limits assumed): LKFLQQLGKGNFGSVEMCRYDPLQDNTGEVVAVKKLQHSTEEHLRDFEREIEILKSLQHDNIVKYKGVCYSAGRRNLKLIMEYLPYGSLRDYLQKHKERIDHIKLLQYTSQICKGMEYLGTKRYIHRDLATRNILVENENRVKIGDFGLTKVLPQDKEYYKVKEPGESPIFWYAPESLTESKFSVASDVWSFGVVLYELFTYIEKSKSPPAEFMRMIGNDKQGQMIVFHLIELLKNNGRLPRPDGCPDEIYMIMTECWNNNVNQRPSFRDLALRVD

For the molecule `COCCNC(=O)c1cc(Cl)c(C(=O)c2c[nH]c3c(NC(=O)C4CC4)nccc23)c(Cl)c1` [Compound No. 16, 3,5-Dichloro-4-({7-[(cyclopropylcarbonyl)amino]-1H-pyrrolo[2,3-c]pyridin-3-yl}carbonyl)-N-(2-methoxyethyl)benzamide], the IC50 in experiment [1] is less than 500 nM; in experiment [2], less than 500 nM; in experiment [3], less than 1000 nM.
With `O=C(NCCCO)c1cc(Cl)c(C(=O)c2c[nH]c3c(NC(=O)C4CC4)nccc23)c(Cl)c1` [Compound No. 30, 3,5-Dichloro-4-({7-[(cyclopropylcarbonyl)amino]-1H-pyrrolo[2,3-c]pyridin-3-yl}carbonyl)-N-(3-hydroxypropyl)benzamide], the IC50 in experiment [1], in experiment [2] and in experiment [3] was less than 500 nM in each case.
Consider `O=C(Nc1nccc2c1ccn2C(=O)c1c(Cl)cc(CNCCCO)cc1Cl)C1CC1` [Compound No. 167, N-[1-(2,6-Dichloro-4-{[(3-hydroxypropyl)amino]methyl}benzoyl)-1H-pyrrolo[3,2-c]pyridin-4-yl]cyclopropanecarboxamide], for which the IC50 in experiment [1], in experiment [2] and in experiment [3] was less than 500 nM throughout.
`CN(C)CCNC(=O)c1cc(F)c(C(=O)c2c[nH]c3c(NC(=O)C4CC4)nccc23)c(F)c1` [Compound No. 63, 4-({7-[(Cyclopropylcarbonyl)amino]-1H-pyrrolo[2,3-c]pyridin-3-yl}carbonyl)-N-[2-(dimethylamino)ethyl]-3,5-difluorobenzamide]: the 50% inhibitory concentration (IC50) in experiment [1], in experiment [2] and in experiment [3] was less than 500 nM in each case.
Consider `O=C(O)CNC(=O)c1cc(Cl)c(C(=O)c2c[nH]c3c(NC(=O)C4CC4)nccc23)c(Cl)c1` [Compound No. 36, N-[3,5-Dichloro-4-({7-[(cyclopropylcarbonyl)amino]-1H-pyrrolo[2,3-c]pyridin-3-yl}carbonyl)benzoyl]glycine], for which the IC50 was less than 100 nM in experiment [1], less than 50 nM in experiment [2] and less than 500 nM in experiment [3].
As to `O=C(Nc1nccc2c1ccn2C(=O)c1c(Cl)cccc1Cl)C1CC1` [Compound No. 77, N-[1-(2,6-Dichlorobenzoyl)-1H-pyrrolo[3,2-c]pyridin-4-yl]cyclopropanecarboxamide], the IC50 in experiment [1] was less than 500 nM; in experiment [2], less than 500 nM; in experiment [3] it was less than 1000 nM.
For `CC(=O)Nc1cc(Cl)c(C(=O)c2c[nH]c3c(NC(=O)C4CC4)nccc23)c(Cl)c1` [Compound No. 27, N-{3-[4-(Acetylamino)-2,6-dichlorobenzoyl]-1H-pyrrolo[2,3-c]pyridin-7-yl}cyclopropanecarboxamide], the results for the IC50 in experiment [1], in experiment [2] and in experiment [3] were less than 500 nM, less than 100 nM and less than 1000 nM, respectively.
For the molecule `N#Cc1cc(Cl)c(C(=O)c2c[nH]c3cnccc23)c(Cl)c1` [Compound No. 6, 3,5-Dichloro-4-(1H-pyrrolo[2,3-c]pyridin-3-ylcarbonyl)benzonitrile], the IC50 in experiment [1], in experiment [2] and in experiment [3] was less than 500 nM in each case.
Turning to `O=C(NCCCN1CCOCC1)c1cc(Cl)c(C(=O)c2c[nH]c3c(NC(=O)C4CC4)nccc23)c(Cl)c1` [Compound No. 31, 3,5-Dichloro-4-({7-[(cyclopropylcarbonyl)amino]-1H-pyrrolo[2,3-c]pyridin-3-yl}carbonyl)-N-[3-(morpholin-4-yl)propyl]benzamide], the IC50 in experiment [1] was less than 1000 nM; in experiment [2] it was less than 500 nM; in experiment [3], less than 500 nM.
`O=C(Nc1nccc2c1ccn2C(=O)c1c(Cl)cc(CNCCN2CCNC2=O)cc1Cl)C1CC1` [Compound No. 165, N-{1-[2,6-Dichloro-4-({[2-(2-oxoimidazolidin-1-yl)ethyl]amino}methyl)benzoyl]-1H-pyrrolo[3,2-c]pyridin-4-yl}cyclopropanecarboxamide]: the IC50 in experiment [1] is less than 500 nM; in experiment [2], less than 500 nM; in experiment [3] it was less than 1000 nM.
As for `Cc1noc(C)c1-c1cc(Cl)c(C(=O)n2ccc3c(NC(=O)C4CC4)nccc32)c(Cl)c1` [Compound No. 87, N-{1-[2,6-Dichloro-4-(3,5-dimethyl-1,2-oxazol-4-yl)benzoyl]-1H-pyrrolo[3,2-c]pyridin-4-yl}cyclopropanecarboxamide], the IC50 is less than 100 nM in experiment [1], less than 1000 nM in experiment [2] and less than 500 nM in experiment [3].
Taken in the same sequence, the figures for `O=C(Nc1nccc2c1ccn2C(=O)c1c(Cl)cc(-c2cncnc2)cc1Cl)C1CC1` [Compound No. 89, N-{1-[2,6-Dichloro-4-(pyrimidin-5-yl)benzoyl]-1H-pyrrolo[3,2-c]pyridin-4-yl}cyclopropanecarboxamide] were less than 50 nM, less than 500 nM and less than 1000 nM.
As for `CC(C)NC(=O)c1cc(Cl)c(C(=O)n2ccc3c(NC(=O)C4CC4)nccc32)c(Cl)c1` [Compound No. 107, 3,5-Dichloro-4-({4-[(cyclopropylcarbonyl)amino]-1H-pyrrolo[3,2-c]pyridin-1-yl}carbonyl)-N-(propan-2-yl)benzamide], the IC50 in experiment [1], in experiment [2] and in experiment [3] was less than 500 nM in each case.
For the molecule `CCOCCCNC(=O)c1cc(F)c(C(=O)c2c[nH]c3c(NC(=O)C4CC4)nccc23)c(F)c1` [Compound No. 64, 4-({7-[(Cyclopropylcarbonyl)amino]-1H-pyrrolo[2,3-c]pyridin-3-yl}carbonyl)-N-(3-ethoxypropyl)-3,5-difluorobenzamide], the values for the IC50 in experiment [1], in experiment [2] and in experiment [3] were less than 1000 nM, less than 1000 nM and less than 500 nM, respectively.
For the molecule `N#Cc1cc(Cl)c(C(=O)n2ccc3cnccc32)c(Cl)c1` [Compound No. 95, 3,5-Dichloro-4-(1H-pyrrolo[3,2-c]pyridin-1-ylcarbonyl)benzonitrile], the IC50 in experiment [1] was less than 500 nM; in experiment [2] it was less than 500 nM; in experiment [3], less than 1000 nM.
Take `O=C(NCc1ccccn1)c1cc(Cl)c(C(=O)n2ccc3c(NC(=O)C4CC4)nccc32)c(Cl)c1` [Compound No. 147, 3,5-Dichloro-4-({4-[(cyclopropylcarbonyl)amino]-1H-pyrrolo[3,2-c]pyridin-1-yl}carbonyl)-N-(pyridin-2-ylmethyl)benzamide]: the IC50 in experiment [1], in experiment [2] and in experiment [3] was less than 500 nM in each case.
As for `COCCNC(=O)Nc1cc(Cl)c(C(=O)n2ccc3c(NC(=O)C4CC4)nccc32)c(Cl)c1` [Compound No. 111, N-[1-(2,6-Dichloro-4-{[(2-methoxyethyl)carbamoyl]amino}benzoyl)-1H-pyrrolo[3,2-c]pyridin-4-yl]cyclopropanecarboxamide], the results for the IC50 in experiment [1], in experiment [2] and in experiment [3] were less than 500 nM, less than 500 nM and less than 1000 nM, respectively.
Regarding `O=C(NCCN1CCCCC1)c1cc(Cl)c(C(=O)c2c[nH]c3c(NC(=O)C4CC4)nccc23)c(Cl)c1` [Compound No. 34, 3,5-Dichloro-4-({7-[(cyclopropylcarbonyl)amino]-1H-pyrrolo[2,3-c]pyridin-3-yl}carbonyl)-N[2-(piperidin-1-yl)ethyl]benzamide], the IC50 in experiment [1], in experiment [2] and in experiment [3] was less than 500 nM in each case.
With `O=C(NCC1CC1)c1cc(Cl)c(C(=O)c2c[nH]c3c(NC(=O)C4CC4)nccc23)c(Cl)c1` [Compound No. 55, 3,5-Dichloro-4-({7-[(cyclopropylcarbonyl)amino]-1H-pyrrolo[2,3-c]pyridin-3-yl}carbonyl)-N-(cyclopropylmethyl)benzamide], the IC50 in experiment [1], in experiment [2] and in experiment [3] was less than 500 nM each time.
`O=C(c1c(F)cccc1Cl)c1c[nH]c2cnc(NC(=O)C3CC3)cc12` [Compound No. 19, N-[3-(2-Chloro-6-fluorobenzoyl)-1H-pyrrolo[2,3-c]pyridin-5-yl]cyclopropanecarboxamide]: the concentration for half-maximal inhibition (IC50) was less than 50 nM in experiment [1], less than 500 nM in experiment [2] and less than 500 nM in experiment [3].

The values are drawn from patent publication US8980911B2, “Heterocyclic compounds as protein kinase inhibitors” (Daiichi Sankyo Company, Limited, priority 2011, dated 2015).
